Drawing on PMC11596857 (Molecules, 2024), this text covers Ki for two compounds.

Assay [1] addresses T1, proline utilization A (SmPutA) (Sinorhizobium meliloti, UniProt F7X6I3).
T1 construct: gene putA; bifunctional PRODH-GSALDH enzyme, His tag removed
T1 sequence (F7X6I3 1-1233): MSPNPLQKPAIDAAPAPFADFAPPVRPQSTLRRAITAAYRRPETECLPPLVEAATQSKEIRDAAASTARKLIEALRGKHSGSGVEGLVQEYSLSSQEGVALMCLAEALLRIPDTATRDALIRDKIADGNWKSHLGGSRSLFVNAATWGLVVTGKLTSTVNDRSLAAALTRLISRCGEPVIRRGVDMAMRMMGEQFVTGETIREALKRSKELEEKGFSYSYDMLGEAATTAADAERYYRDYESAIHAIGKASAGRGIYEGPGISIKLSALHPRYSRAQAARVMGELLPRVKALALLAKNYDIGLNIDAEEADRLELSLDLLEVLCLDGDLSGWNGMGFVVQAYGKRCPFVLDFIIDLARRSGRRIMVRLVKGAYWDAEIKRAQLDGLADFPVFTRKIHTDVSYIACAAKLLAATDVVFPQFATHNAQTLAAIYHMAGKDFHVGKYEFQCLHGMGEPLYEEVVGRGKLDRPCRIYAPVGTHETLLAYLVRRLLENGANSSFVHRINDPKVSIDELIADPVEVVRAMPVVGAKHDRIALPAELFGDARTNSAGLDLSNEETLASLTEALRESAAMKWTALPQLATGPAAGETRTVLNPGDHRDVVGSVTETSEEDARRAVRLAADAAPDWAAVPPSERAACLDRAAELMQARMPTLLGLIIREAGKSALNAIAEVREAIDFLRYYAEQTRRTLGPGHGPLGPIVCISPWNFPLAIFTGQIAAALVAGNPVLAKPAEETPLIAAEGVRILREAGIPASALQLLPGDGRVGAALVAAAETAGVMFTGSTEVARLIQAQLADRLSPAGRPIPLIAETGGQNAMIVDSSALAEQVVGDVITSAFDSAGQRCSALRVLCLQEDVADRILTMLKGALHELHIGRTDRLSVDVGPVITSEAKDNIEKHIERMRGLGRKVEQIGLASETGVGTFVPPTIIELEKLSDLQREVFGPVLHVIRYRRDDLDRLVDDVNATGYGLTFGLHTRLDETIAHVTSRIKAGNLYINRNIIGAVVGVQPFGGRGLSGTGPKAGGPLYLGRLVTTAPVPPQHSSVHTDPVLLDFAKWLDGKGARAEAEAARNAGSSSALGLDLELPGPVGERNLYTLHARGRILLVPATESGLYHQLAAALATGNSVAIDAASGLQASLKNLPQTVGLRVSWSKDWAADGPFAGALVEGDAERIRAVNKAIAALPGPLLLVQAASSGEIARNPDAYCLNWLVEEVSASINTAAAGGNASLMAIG
Briefly: X-ray crystal structure ([…] Å); Ki from GSALDH activity inhibition. The format is biochemical.

In assay [2] the target is T1, proline utilization A (SmPutA). Described as above. The format is biochemical. This is another data set of the same source.

Like-named read-outs stand apart in the source and are kept apart here.

Take `O=C(O)C1CCCNC1` (racemic) [compound 13, 13]: in assay [1], the Ki was determined as 1500 µM. `O=C(O)c1cccc2c1OCCO2` [compound 7, 7] registered a Ki in assay [2] of 320 µM.

The Ki is the dissociation constant of the complex between target and ligand, obtained from inhibition or displacement.
